Consider three molecules from US9801850B2, “Antibacterial agent” (OSAKA UNIVERSITY, priority 2009, dated 2017).

Assay [1] relates to MSSA clinical isolate No. 4. As to the kind of experiment: MIC, broth microdilution (Example 2, Table 6). The class given is cell-based, Staphylococcus aureus.
Assay [2] concerns MRSA ATCC43300. Kind of assay: MIC, broth microdilution (Example 2, Table 6). Type of assay: cell-based, Staphylococcus aureus. As for the experimental part:
(§1) Methicillin-susceptible Staphylococcus aureus (MSSA) NCTC8325 and methicillin-resistant Staphylococcus aureus (MRSA) ATCC43300 were used as bacteria. The bacteria of each type were cultured using Mueller-Hinton Broth (MH-broth, Difco) as a medium. Then, the minimum inhibitory concentration (MIC) of each of the EGCG derivatives was measured by a broth microdilution method in accordance with the Clinical and Laboratory Standards Institute (CLSI) guidelines (hereinafter the same).
(§2) First, each of the EGCG derivatives was dissolved in 100% dimethyl sulfoxide (DMSO, Wako Pure Chemical Industries, Ltd.) so that the concentration thereof became 5120 μg/ml. The resultant solution was diluted with DMSO or sterile distilled water so as to prepare two-fold dilution series of antibacterial agent solutions. […] Each of these antibacterial agent solutions was dispensed to wells of a 96-well plate. The concentration of the EGCG derivative in the antibacterial agent solution dispensed to the wells was set to be 10 times as high as the final concentration. On the other hand, the bacteria were cultured in the MH-broth at 37° C. overnight, and the thus-obtained pre-culture solution was diluted with a new MH-broth so that the concentration thereof in the MH-broth became 10^−4 (10^4-fold dilution), thus preparing a bacterial culture solution of about 1×10^5 CFU/ml (CFU: Colony Forming Unit, the number of viable cells). The bacterial culture solution was further added to each well, and the mixture was cultured at 37° C. for 18 hours. The ratio (volume ratio) between the antibacterial agent solution and the bacterial culture solution added to each well was set to 1:9 (the antibacterial agent solution:the bacterial culture solution), and the volume of the mixture of them per well was set to 100 μl in total. The final concentration of the EGCG derivative in the mixture was set to 8 μg/ml to 512 μg/ml, and the number of viable cells in the mixture was set to about 1×10^5 CFU/ml. Then, after the completion of the culture, the MIC was determined. Also, the turbidity (OD600 nm) was measured using a plate reader so as to identify minor differences.
(§3) Each of the EGCG derivatives was dissolved in 100% DMSO so that the concentration thereof became 1280 μg/ml. The thus-obtained solutions were diluted with sterile distilled water, thus preparing antibacterial agent solutions.
(§4) As Comparative Example 2, the same procedures as in Example 2 were performed, except that unsubstituted EGCG was used as an antibacterial agent instead of the EGCG derivatives of Example 2. Furthermore, as a control, the same procedures as in Example 2 were performed, except that sterile distilled water was used instead of the antibacterial agent solutions containing the EGCG derivatives.

The test system of assay [3] is S. aureus NCTC8325 (MSSA). Kind of assay: MIC, broth microdilution (Example 2, Table 6). Type of assay: cell-based, Staphylococcus aureus. Here is the method:
as §1, §2, §3, §4

Assay [4] concerns MRSA clinical isolate No. 11. Kind of assay: MIC, broth microdilution (Example 2, Table 6). Type of assay: cell-based, Staphylococcus aureus.
The test system of assay [5] is MRSA clinical isolate No. 7. As to the kind of experiment: MIC, broth microdilution (Example 2, Table 6). The class given is cell-based, Staphylococcus aureus.
The test system of assay [6] is MSSA clinical isolate No. 2. Kind of assay: MIC, broth microdilution (Example 2, Table 6). The class given is cell-based, Staphylococcus aureus.
Assay [7] relates to MRSA clinical isolate No. 12. As to the kind of experiment: MIC, broth microdilution (Example 2, Table 6). Type of assay: cell-based, Staphylococcus aureus.
In assay [8] the test system is Candida albicans ATCC24433. Kind of assay: MIC with respect to fungi, broth microdilution (Table 8). Type of assay: cell-based. The settings on record: RPMI1640/MOPS (pH 7.0), 35° C., 24 to 48 hours. Here is the method: (§5) Regarding the respective type strains shown in Tables 7 and 8 below, the MIC measurement was performed using the antibacterial agent solutions of Example 2 in the same manner as described in Section (2) of Example 1, except for the following. The antibacterial agent solutions were prepared by dissolving the EGCG derivatives of Example 2 in 100% DMSO and then diluting the resultant mixtures with sterile distilled water. The respective strains were derived from ATCC or NCTC. As Moraxella catarrhalis and Aspergillus fumigatus, clinical isolates thereof without an acquired resistance mechanism were used. For nutrient-rich bacteria, namely, Streptococcus pneumoniae ATCC49619, Streptococcus pyogenes ATCC19615, Streptococcus agalactiae ATCC13813, Moraxella catarrhalis, and Haemophilis influenzae ATCC49766, Strepto Haemo supplement (Eiken Chemical Co., Ltd.) was added to media for culturing them. The MIC measurement with respect to fungi was carried out by a broth microdilution method using a RPMI1640/MOPS (pH 7.0) medium in accordance with CLSI guidelines. About 2×10^3 cells/ml of fungi were inoculated to the medium. After the culture at 35° C. for 24 to 48 hours, the MIC was determined. Also, regarding the antibacterial agent solution of Comparative Example 2, the MIC was measured in the same manner.

In assay [9] the test system is Candida tropicalis ATCC750. The description is as above. Type of assay: cell-based. As to conditions: RPMI1640/MOPS (pH 7.0), 35° C., 24 to 48 hours. Here is the method: as §5
Assay [10] relates to Candida parapsilosis ATCC22019. Described as above. The class given is cell-based. The settings on record: RPMI1640/MOPS (pH 7.0), 35° C., 24 to 48 hours. Here is the method:
as §5

Assay [11] deals with Cryptococcus neoformans ATCC90112. The assay is described as above. As to conditions: RPMI1640/MOPS (pH 7.0), 35° C., 24 to 48 hours. Type of assay: cell-based. As for the experimental part:
as §5

In assay [12] the test system is Aspergillus fumigatus. Described as above. Type of assay: cell-based. As to conditions: Aspergillus fumigatus clinical isolate; RPMI1640/MOPS (pH 7.0), 35° C., 24 to 48 hours. Here is the method:
as §5

For assay [13], the system named is Candida krusei ATCC6258. The description is as above. Type of assay: cell-based. As to conditions: RPMI1640/MOPS (pH 7.0), 35° C., 24 to 48 hours. Here is the method:
as §5

The subject of assay [14] is Candida glabrata ATCC90030. Described as above. The class given is cell-based. As to conditions: RPMI1640/MOPS (pH 7.0), 35° C., 24 to 48 hours. Here is the method: as §5
The subject of assay [15] is MSSA clinical isolate No. 1. Kind of assay: MIC, broth microdilution (Example 2, Table 6). Type of assay: cell-based, Staphylococcus aureus.
The test system of assay [16] is MSSA clinical isolate No. 3. Kind of assay: MIC, broth microdilution (Example 2, Table 6). The class given is cell-based, Staphylococcus aureus.
Assay [17] has as its system MSSA ATCC25923. As to the kind of experiment: MIC, broth microdilution (Example 2, Table 6). The class given is cell-based, Staphylococcus aureus.
Assay [18] concerns MSSA clinical isolate No. 5. Kind of assay: MIC, broth microdilution (Example 2, Table 6). Type of assay: cell-based, Staphylococcus aureus.
The test system of assay [19] is MSSA ATCC29213. As to the kind of experiment: MIC, broth microdilution (Example 2, Table 6). The class given is cell-based, Staphylococcus aureus.
Assay [20] concerns MRSA clinical isolate No. 8. Kind of assay: MIC, broth microdilution (Example 2, Table 6). The class given is cell-based, Staphylococcus aureus.
Assay [21] relates to MSSA ATCC12600. Kind of assay: MIC, broth microdilution (Example 2, Table 6). The class given is cell-based, Staphylococcus aureus.
Assay [22] concerns MRSA clinical isolate No. 9. As to the kind of experiment: MIC, broth microdilution (Example 2, Table 6). Type of assay: cell-based, Staphylococcus aureus.

Converted amounts (≈) assume the structure as drawn. Where only a bound is given, the exact number is not on record here.

As for `O=C(O[C@@H]1Cc2c(O)cc(O)cc2O[C@@H]1c1cc(O)c(O)c(O)c1)c1cc(O)c(O)c(O)c1` [EGCG, Epigallocatechin gallate, reference compound], the MIC is above 128 µg/mL in [1]; above 128 µg/mL in assay [2]; 128 µg/mL (≈ 279 µM) in [3]; above 128 µg/mL in assay [4]; above 128 µg/mL in assay [5]; above 128 µg/mL in assay [6]. Besides, the MIC in [7] was above 128 µg/mL; in [8], 64 µg/mL (≈ 140 µM); in [9], 64 µg/mL (≈ 140 µM); in [10], 64 µg/mL (≈ 140 µM); in assay [11], 64 µg/mL (≈ 140 µM); in [12] it was 64 µg/mL (≈ 140 µM). Besides, the MIC in assay [13] is 64 µg/mL (≈ 140 µM); in assay [14] it was 32 µg/mL (≈ 69.8 µM); in [15], above 128 µg/mL; in [16], above 128 µg/mL; in [17] it was above 128 µg/mL; in [18], 128 µg/mL (≈ 279 µM). Further, the MIC was above 128 µg/mL in assay [19], 128 µg/mL (≈ 279 µM) in assay [20], above 128 µg/mL in [21] and above 128 µg/mL in [22].
As to EGCG-palmitate [EGCG-C16], the MIC in assay [1] came to 16 µg/mL; in [2], 16 µg/mL; in assay [3], 8 µg/mL; in [4] it was 32 µg/mL; in assay [5], 16 µg/mL; in assay [6] it was 16 µg/mL. Further, the minimal inhibitory concentration (MIC) in [7] stood at 16 µg/mL; in assay [8], 32 µg/mL; in assay [9], 32 µg/mL; in assay [10] it was 16 µg/mL; in assay [11] it was 8 µg/mL; in [12], 32 µg/mL. For the same molecule, the MIC in assay [13], in [14], in assay [15], in [16], in [17] and in [18] was 16 µg/mL each time. Moreover, the MIC in assay [19] was determined as 16 µg/mL; in assay [20], 8 µg/mL; in assay [21], 16 µg/mL; in assay [22] it was 32 µg/mL.
On to EGCG-oleate [EGCG-C18E], for which the MIC in assay [1] came to 32 µg/mL; in assay [2] it was 32 µg/mL; in assay [3], 16 µg/mL; in assay [4] it was 64 µg/mL; in [5] it was 16 µg/mL; in assay [6] it was 32 µg/mL. The MIC was 32 µg/mL in assay [7]; 16 µg/mL in [8]; 32 µg/mL in assay [9]; 16 µg/mL in assay [10]; 16 µg/mL in assay [11]; 32 µg/mL in assay [12]. Besides, the MIC in assay [13] is 16 µg/mL; in [14] it was 16 µg/mL; in assay [15], 32 µg/mL; in [16] it was 32 µg/mL; in assay [17] it was 32 µg/mL; in assay [18], 32 µg/mL. The MIC in assay [19] turned out to be 32 µg/mL; in assay [20], 8 µg/mL; in [21] it was 32 µg/mL; in assay [22] it was 64 µg/mL.
